Active and inactive are the calls of the source.
Legend:
[1] = target: NACHT, LRR and PYD domains-containing protein 3 (Homo sapiens) (UniProt Q96P20); experiment: Inhibition of NLRP3 inflammasome activation in PMA-differentiated and LPS/MSU-stimulated human THP-1 cells assessed as decrease in pro-IL-1beta expression at 20 uM incubated for 1 hrs followed by LPS stimulation for 12 hrs and MSU addition for 6 hrs by western blot analysis; assay type: cell-based; conditions: time 19.0 hrs
[2] = target: T1, P2X purinoceptor 7 (Homo sapiens) (UniProt Q99572); experiment: Inhibition of pronase mediated degradation of P2X7 in human THP-1 cells assessed as increase in P2X7 expression at 20 to 80 uM by Western blot analysis; assay type: cell-based; conditions: dose 20-80 µM
T1 sequence (whole entry): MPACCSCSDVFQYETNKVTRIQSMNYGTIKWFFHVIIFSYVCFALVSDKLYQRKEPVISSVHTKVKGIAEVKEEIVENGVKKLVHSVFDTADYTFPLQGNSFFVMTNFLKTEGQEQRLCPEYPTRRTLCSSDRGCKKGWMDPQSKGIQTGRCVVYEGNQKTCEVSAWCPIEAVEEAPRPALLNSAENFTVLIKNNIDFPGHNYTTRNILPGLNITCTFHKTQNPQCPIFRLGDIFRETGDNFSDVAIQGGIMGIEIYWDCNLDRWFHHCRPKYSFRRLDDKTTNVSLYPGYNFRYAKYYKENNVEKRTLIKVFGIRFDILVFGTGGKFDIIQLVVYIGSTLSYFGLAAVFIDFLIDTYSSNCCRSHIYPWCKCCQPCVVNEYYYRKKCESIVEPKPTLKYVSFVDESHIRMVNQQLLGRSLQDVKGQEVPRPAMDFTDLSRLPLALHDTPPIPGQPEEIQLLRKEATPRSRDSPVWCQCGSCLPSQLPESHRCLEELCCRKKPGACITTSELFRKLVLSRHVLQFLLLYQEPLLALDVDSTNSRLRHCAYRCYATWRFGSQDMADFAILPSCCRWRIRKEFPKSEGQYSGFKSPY

[3] = target: NACHT, LRR and PYD domains-containing protein 3 (Homo sapiens) (UniProt Q96P20); experiment: (§1) Inhibition of NLRP3 inflammasome activation in PMA-differentiated and LPS/ATP-stimulated human THP-1 cells assessed as reduction in total NF-KappaB P65 nuclear expression at 5 to 20 uM incubated for 1 hrs followed by LPS stimulation for 12 hrs and ATP addition for 0.5 hrs by Western blot analysis; assay type: cell-based; conditions: dose 5-20 µM, time 13.5 hrs
[4] = target: NACHT, LRR and PYD domains-containing protein 3 (Homo sapiens) (UniProt Q96P20); experiment: Inhibition of NLRP3 inflammasome activation in PMA-differentiated and LPS/ATP-stimulated human THP-1 cells assessed as reduction in nuclear localization of NF-KappaB at 20 uM incubated for 1 hrs followed by LPS stimulation for 12 hrs and ATP addition for 0.5 hrs by DAPI staining based immunofluorescence analysis; assay type: cell-based; conditions: time 13.5 hrs
[5] = target: NACHT, LRR and PYD domains-containing protein 3 (Homo sapiens) (UniProt Q96P20); experiment: Inhibition of NLRP3 inflammasome activation in PMA-differentiated and LPS/MSU-stimulated human THP-1 cells assessed as decrease in IL-1beta expression at 20 uM incubated for 1 hrs followed by LPS stimulation for 12 hrs and MSU addition for 6 hrs by western blot analysis; assay type: cell-based; conditions: time 19.0 hrs
RAW264.7 [6] = experiment: Cytotoxicity against mouse RAW264.7 cells derived macrophage assessed as reduction in cell viability upto 40 uM incubated for 24 hrs by CCK-8 assay; assay type: toxicity, cell-based; conditions: raw264.7, 24 h
[7] = target: NACHT, LRR and PYD domains-containing protein 3 (Homo sapiens) (UniProt Q96P20); experiment: Inhibition of NLRP3 inflammasome activation in PMA-differentiated and LPS/ATP-stimulated human THP-1 cells assessed as decrease in pro-IL-1beta expression at 5 to 20 uM incubated for 1 hrs followed by LPS stimulation for 12 hrs and ATP addition for 0.5 hrs by western blot analysis; assay type: cell-based; conditions: dose 5-20 µM, time 13.5 hrs
[8] = target: NACHT, LRR and PYD domains-containing protein 3 (Homo sapiens) (UniProt Q96P20); experiment: Inhibition of NLRP3 inflammasome activation in PMA-differentiated and LPS/ATP-stimulated human THP-1 cells assessed as inhibition of IL-1beta secretion at 5 to 20 uM incubated for 1 hrs followed by LPS stimulation for 12 hrs and ATP addition for 0.5 hrs by ELISA; assay type: cell-based; conditions: dose 5-20 µM, time 13.5 hrs, DDE = dose-dependent effect
[9] = target: NACHT, LRR and PYD domains-containing protein 3 (Homo sapiens) (UniProt Q96P20); experiment: as §1, with “downregulation of” for “reduction in total”, “p65 subunit phosphorylation” for “P65 nuclear expression”; assay type: cell-based; conditions: dose 5-20 µM, time 13.5 hrs
[10] = target: NACHT, LRR and PYD domains-containing protein 3 (Homo sapiens) (UniProt Q96P20); experiment: Inhibition of NLRP3 inflammasome activation in LPS/ATP-induced human THP-1 cells assessed as suppression of P2X7 expression at 5 to 20 uM preincubated for 1 hrs followed by LPS for 12 hrs and ATP 0.5 hrs in presence of A438079 by Western blot analysis; assay type: cell-based; conditions: dose 5-20 µM, time 13.5 hrs
THP-1 [11] = experiment: Antiinflammatory activity against PMA-differentiated and LPS/ATP stimulated human THP-1 cells assessed as increase in cell viability at 5 to 20 uM incubated for 1 hrs followed by LPS stimulation for 12 hrs and ATP addition for 0.5 hrs by LDH assay; assay type: functional, cell-based; conditions: dose 5-20 µM, time 13.5 hrs
[12] = target: NACHT, LRR and PYD domains-containing protein 3 (Homo sapiens) (UniProt Q96P20); experiment: Inhibition of NLRP3 inflammasome activation in PMA-differentiated and LPS/ATP-stimulated human THP-1 cells assessed as assessed as increase in intracellular chloride concentration at 20 uM incubated for 1 hrs followed by LPS stimulation for 12 hrs and ATP addition for 0.5 hrs by MQAE staining based flow cytometry; assay type: cell-based; conditions: time 13.5 hrs
THP-1 [13] = experiment: Antiinflammatory activity against PMA-differentiated and LPS/ATP stimulated human THP-1 cells assessed as increase in cell viability at 5 to 20 uM incubated for 1 hrs followed by LPS stimulation for 12 hrs and ATP addition for 0.5 hrs by CCK8 assay; assay type: functional, cell-based; conditions: dose 5-20 µM, time 13.5 hrs
RAW264.7 [14] = experiment: Antiinflammatory activity in mouse RAW264.7 assessed as inhibition of LPS-induced NO production incubated for 1 hrs followed by LPS stimulation for 18 hrs by Griess reagent based assay; assay type: functional, cell-based
[15] = target: NACHT, LRR and PYD domains-containing protein 3 (Homo sapiens) (UniProt Q96P20); experiment: Inhibition of NLRP3 inflammasome activation in PMA-differentiated and LPS/NIG-stimulated human THP-1 cells assessed as decrease in pro-IL-1beta expression at 20 uM incubated for 1 hrs followed by LPS stimulation for 12 hrs and NIG addition for 2 hrs by western blot analysis; assay type: cell-based; conditions: time 15.0 hrs
[16] = target: NACHT, LRR and PYD domains-containing protein 3 (Homo sapiens) (UniProt Q96P20); experiment: Inhibition of NLRP3 inflammasome activation in PMA-differentiated and LPS/ATP-stimulated human THP-1 cells assessed as suppression of P2X7 expression at 5 to 20 uM incubated for 1 hrs followed by LPS stimulation for 12 hrs and ATP addition for 0.5 hrs by Western blot analysis; assay type: cell-based; conditions: dose 5-20 µM, time 13.5 hrs, DDE = dose-dependent effect
THP-1 [17] = experiment: Antiinflammatory activity against PMA-differentiated and LPS/NIG stimulated human THP-1 cells assessed as increase in cell viability at 5 to 20 uM incubated for 1 hrs followed by LPS stimulation for 12 hrs and NIG addition for 2 hrs by LDH assay; assay type: functional, cell-based; conditions: dose 5-20 µM, time 15.0 hrs
[18] = target: NACHT, LRR and PYD domains-containing protein 3 (Homo sapiens) (UniProt Q96P20); experiment: Inhibition of NLRP3 inflammasome activation in PMA-differentiated and LPS/MSU-stimulated human THP-1 cells assessed as inhibition of IL-1beta secretion at 20 uM incubated for 1 hrs followed by LPS stimulation for 12 hrs and MSU addition for 6 hrs by ELISA; assay type: cell-based; conditions: time 19.0 hrs
[19] = target: NACHT, LRR and PYD domains-containing protein 3 (Homo sapiens) (UniProt Q96P20); experiment: Inhibition of NLRP3 inflammasome activation in PMA-differentiated and LPS/NIG-stimulated human THP-1 cells assessed as decrease in caspase-1 expression at 20 uM incubated for 1 hrs followed by LPS stimulation for 12 hrs and NIG addition for 2 hrs by western blot analysis; assay type: cell-based; conditions: time 15.0 hrs
[20] = target: NACHT, LRR and PYD domains-containing protein 3 (Homo sapiens) (UniProt Q96P20); experiment: Inhibition of NLRP3 inflammasome activation in PMA-differentiated and LPS/NIG-stimulated human THP-1 cells assessed as decrease of ASC polymers at 20 uM incubated for 1 hrs followed by LPS stimulation for 12 hrs and NIG addition for 2 hrs by Western blot analysis; assay type: cell-based; conditions: time 15.0 hrs

Sequence of NACHT, LRR and PYD domains-containing protein 3 (Homo sapiens) (Q96P20 whole entry, the tested form may be a part): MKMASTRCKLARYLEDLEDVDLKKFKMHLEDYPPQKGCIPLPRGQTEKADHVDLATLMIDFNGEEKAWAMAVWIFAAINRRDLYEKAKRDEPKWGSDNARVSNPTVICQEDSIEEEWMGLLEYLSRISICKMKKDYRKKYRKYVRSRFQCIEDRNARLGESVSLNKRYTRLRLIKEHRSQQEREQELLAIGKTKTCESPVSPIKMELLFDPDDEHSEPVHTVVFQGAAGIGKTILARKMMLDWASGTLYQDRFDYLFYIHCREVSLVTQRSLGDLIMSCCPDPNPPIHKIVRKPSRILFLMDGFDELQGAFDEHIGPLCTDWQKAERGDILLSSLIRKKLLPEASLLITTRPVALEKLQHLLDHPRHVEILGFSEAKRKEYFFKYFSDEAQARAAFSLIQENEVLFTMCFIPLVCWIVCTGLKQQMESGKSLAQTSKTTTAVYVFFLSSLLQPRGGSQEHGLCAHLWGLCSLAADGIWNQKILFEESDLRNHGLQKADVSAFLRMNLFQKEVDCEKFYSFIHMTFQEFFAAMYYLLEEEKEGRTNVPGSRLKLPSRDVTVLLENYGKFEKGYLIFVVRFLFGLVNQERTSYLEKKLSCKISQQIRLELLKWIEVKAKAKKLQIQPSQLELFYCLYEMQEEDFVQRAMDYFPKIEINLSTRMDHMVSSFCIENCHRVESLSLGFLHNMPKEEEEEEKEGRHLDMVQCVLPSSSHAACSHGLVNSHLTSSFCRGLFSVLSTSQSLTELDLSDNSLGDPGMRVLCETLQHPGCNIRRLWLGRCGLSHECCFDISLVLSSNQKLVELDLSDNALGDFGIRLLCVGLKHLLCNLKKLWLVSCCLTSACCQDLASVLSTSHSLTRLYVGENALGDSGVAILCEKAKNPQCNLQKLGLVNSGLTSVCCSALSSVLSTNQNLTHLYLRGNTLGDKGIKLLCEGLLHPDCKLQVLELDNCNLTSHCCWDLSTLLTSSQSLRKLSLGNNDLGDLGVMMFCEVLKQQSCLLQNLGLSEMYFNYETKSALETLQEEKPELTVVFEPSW

CC1(C)C(=O)C=C[C@]2(C)[C@H]3CC[C@@]4(C)[C@H](c5ccoc5)OC(=O)[C@H]5O[C@]54[C@]3(C)[C@H](O)C[C@@H]12 [DEACETYLGEDUNIN]
Non-Toxic: Activity (RAW264.7 [6])
9.19 µM: IC50 (RAW264.7 [14])
active: inhibition [1] | inhibition [2] | inhibition [3] | inhibition [4] | inhibition [5] | inhibition [7] | inhibition [8] Dde | inhibition [9] | inhibition [10] | Activity (THP-1 [11]) | inhibition [12] | Activity (THP-1 [13]) | inhibition [15] | inhibition [16] Dde | Activity (THP-1 [17]) | inhibition [18] | inhibition [19] | inhibition [20]
